Assays:
Format in all cases: in vivo
[1] = test system: Sinapis; experiment: Field post-emergence test, Sinapis; conditions: 2 lbs/acre, reading 0 (no effect) to 10 (completely killed), the values are: rating score 0–10
Description: (§1) Forty rows, 70 feet long, were planted to weeds and crops. Two rows were planted on each bed. Beds were 40 inches apart from center to center. The two rows were about 10 inches apart on each. Beds were rolled prior to planting to provide a uniform smooth surface. Soil temperature at a depth of 11/2 inches was 66° F. at time of planting. Post-emergence applications were made by spraying bands across rows 10 feet wide using a self-propelled plot sprayer with a 10 foot boom equipped with Teejet 8001 flat spray nozzle tips and operated at 40 psi. A total of 84 fluid ounces of spray material was applied to three replicates. Each replicate plot was 10 feet wide by 66.67 feet long.
(§2) Eight days after the application, readings were made on the effect of the chemicals on each crop and weed in the post-emergence treatment. A reading of 0 was recorded if no effect was observed; 10 recorded if the plants were completely killed, and readings of 1 to 9 for intermediate kills. A second reading of the post-emergence treatments was made 14 days after the application.

[2] = test system: Wheat; experiment: Field post-emergence test, wheat; conditions: 2 lbs/acre, reading 0 (no effect) to 10 (completely killed), the values are: control rating (0–10 scale)
Description: as §1, §2

[3] = test system: Sinapis; experiment: Field pre-emergence test, Sinapis; conditions: reading 0 (no effect) to 10 (completely killed), the values are: rating score 0–10
Description: as §1
(§3) An additional 100 feet of crops and weeds shown in TABLES XIII and XIV were planted in the same manner as the above post-emergence plots. Soil temperature at planting was […] at a depth of 11/2 inches. […]
as §2
(§4) Readings were made 14 and 20 days after the pre-emergence application.

[4] = test system: Oats; experiment: Field post-emergence test, oats; conditions: 2 lbs/acre, reading 0 (no effect) to 10 (completely killed), the values are: rating score 0–10
Description: as §1, §2

[5] = test system: crops and weed species; experiment: Pre- and post-emergence herbicide tests, overall assessment; conditions: TABLES III-VI
Description: All crop and weed species were planted individually in 3" plastic pots containing potting soil. Four seeds each of corn, cotton, and snapbeans were seeded to a depth equal to the diameter of the seed. All other species were surface seeded and sprinkled with screened soil in an amount sufficient to cover the seed. Immediately after planting, all pots were watered by sub-irrigation in greenhouse trays. Pots for the pre-emergence phase were seeded one day before treatment.
Planting dates for the post-emergence phase were varied so that all seedlings would reach the desired stage of development simultaneously. The proper stage of seedling development for treatment in the post-emergence phase is as follows:
Compounds were tested at rates of application equivalent to 8 lbs. of actual compound per acre in a spray volume of 38 gallons per acre. Spray hood constants required to deliver the above volume are as follows:
Spray applications were made in a hood containing a removable belt and fixed spray nozzle. For passage through the spray hood, one pot of each specie (pre-emergence phase) was placed on the rear half of the flat. Treatments were removed to the greenhose after spraying. Watering during the observation period was done only by sub-irrigation.
Two weeks after treatment, pre- and post-emergence injury or control was visually rated, and the results were as shown in the following tables. Pre-emergence data are provided in TABLE III and post-emergence data are provided in TABLE IV, for compounds having the formula illustrated in TABLE I. Correspondingly, pre-emergence and post-emergence data, respectively, are set forth in TABLES V AND VI, for compounds having the formula illustrated in TABLE II.

[6] = test system: Wheat; experiment: Field pre-emergence test, wheat; conditions: reading 0 (no effect) to 10 (completely killed), the values are: rating score 0–10
Description: as §1, §3, §2, §4

[7] = test system: Oats; experiment: Field pre-emergence test, oats; conditions: reading 0 (no effect) to 10 (completely killed), the values are: rating score 0–10
Description: as §1, §3, §2, §4

Compound | effectiveness applied to a variety of crops and weed species [5] | selectivity when applied to a certain crop or weed species [5] | other results
CNC(=O)Nc1nnc(C(F)(F)F)s1 [Example 1, 1-Methyl-3-[5-Trifluoromethyl-2-(1,3,4-Thiadiazolyl)] Urea] | extremely effective |  | POST-EMERGENCE ACTIVITY, % CONTROL [1]: 10; POST-EMERGENCE ACTIVITY, % CONTROL [2]: 10; PRE-EMERGENCY ACTIVITY, % CONTROL ([3]; 1 lbs/acre): 10; PRE-EMERGENCY ACTIVITY, % CONTROL ([3]; 2 lbs/acre): 10; POST-EMERGENCE ACTIVITY, % CONTROL [4]: 9; PRE-EMERGENCY ACTIVITY, % CONTROL ([6]; 1 lbs/acre): 10; PRE-EMERGENCY ACTIVITY, % CONTROL ([6]; 2 lbs/acre): 10; PRE-EMERGENCY ACTIVITY, % CONTROL ([7]; 1 lbs/acre): 10; PRE-EMERGENCY ACTIVITY, % CONTROL ([7]; 2 lbs/acre): 10
CN(C)C(=O)Nc1nnc(C(F)(F)F)s1 [Example 2, 1,1-Dimethyl-3-[5-Trifluoromethyl-2-(1,3,4-Thiadiazolyl)] Urea] | extremely effective |  | 
CSc1nnc(N(C)C(=O)N(C)C)s1 [Example 5, 1,1,3-trimethyl-3-[5-methylthio-3-(1,3,4-thiadiazolyl)] urea] | extremely effective |  | 
CCNC(=O)Nc1nnc(C(F)(F)F)s1 [Example 9] |  | more selective | 
C=CCNC(=O)Nc1nnc(C(F)(F)F)s1 [Example 12] |  |  | selectivity post-emergence versus pre-emergence [5]: control post-emergence growth, while have little effect in regard to pre-emergence
O=C(Nc1ccc(Cl)cc1)Nc1nnc(C(F)(F)F)s1 [Example 15] |  | more selective | 
O=C(Nc1ccc(Cl)c(Cl)c1)Nc1nnc(C(F)(F)F)s1 [Example 16] |  | more selective | 
Cc1nnc(NC(=O)N(C)C)s1 [Example 19] |  |  | selectivity post-emergence versus pre-emergence [5]: The converse of this relationship
CCc1nnc(NC(=O)N(C)C)s1 [Example 20] |  | more selective | 
CNC(=O)Nc1nnc(CC(C)C)s1 [Example 21] |  | more selective | 
CNC(=O)Nc1nnc(COC)s1 [Example 25] |  | more selective | 
CNC(=O)Nc1nnc(SC)s1 [Example 26] | extremely effective |  | 
CNC(=O)Nc1nncs1 [Example 35] |  | more selective | 
CNC(=O)N(C)c1nnc(C(F)(F)F)s1 [Example 36] | extremely effective |  | 
CCN(C(=O)NC)c1nnc(C(F)(F)F)s1 [Example 37] | extremely effective |  | 

Reference: US5087284A, “5-substituted thiadiazole ureas and their use as herbicides” (Rhone-Poulenc, Inc., priority 1989, dated 1992)
